This is an account of results in patent publication US20040235932A1, “Ophthalmic pharmaceutical compositions” (priority 2001, published 2004).

“Also recorded” adds a separate entry of the source.

The subject of assay [1] is patients suffering from primary closed angle glaucoma and ocular hypertension. As to conditions: 0.05% eye drop, continuous administration; cited from earlier work.
Another assay concerns the target T1, human variant α1 A-AR (Homo sapiens, UniProt P35348, A271T).
T1 sequence (P35348 1-466 A271T): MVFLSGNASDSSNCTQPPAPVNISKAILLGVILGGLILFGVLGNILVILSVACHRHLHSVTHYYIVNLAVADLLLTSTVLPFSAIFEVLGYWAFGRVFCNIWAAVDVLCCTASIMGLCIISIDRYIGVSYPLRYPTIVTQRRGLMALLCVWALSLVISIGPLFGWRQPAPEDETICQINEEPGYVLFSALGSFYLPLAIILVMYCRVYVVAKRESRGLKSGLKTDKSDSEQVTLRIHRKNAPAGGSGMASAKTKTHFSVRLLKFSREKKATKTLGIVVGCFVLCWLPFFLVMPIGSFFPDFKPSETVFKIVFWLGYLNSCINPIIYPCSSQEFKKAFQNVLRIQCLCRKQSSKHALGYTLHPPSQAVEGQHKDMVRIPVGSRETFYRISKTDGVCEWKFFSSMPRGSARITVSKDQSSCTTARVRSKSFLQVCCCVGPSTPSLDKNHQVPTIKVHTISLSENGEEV
In words: Effects on expression level of α1 A-AR in CHO cells expressing variant α1 A-AR ([3H]-prazosin binding to membrane fractions). As to conditions: CHO cells expressing variant α1 A-AR cultured 48 hours with test drug 10^−8 M (mixture: each 10^−8 M).

Assay [2] has as its system Dutch male colored rabbits. The assay can be described thus: Activity to reduce intraocular pressure on continuous eye drop administration in rabbits. It is filed as in vivo, rabbit. The settings on record: for Difference in intraocular pressure after the administration: 0.03% eye drop, test eye vs control eye, mean±S.E. As to the method: KRG-3332 as prepared in Reference Example 2 was dissolved in physiological saline to prepare a 0.01% solution, which was used as test solution 1 (0.01% eye drop) in the following method for determining the activity to reduce intraocular pressure. […] For the administration of eye drop, each 50 ρL of the test solution and the control (physiological saline) was administered to one eye and the other eye respectively, twice a day (11:00 and 19:00), and the administration continued for up to 57 days. The corneal surfaces of the animals were anaesthetized with 0.4% oxybuprocaine hydrochloride eye drop to, and the intraocular pressure was determined at time points of 11:00 (before the administration), 13:00(2 hours after the administration), 15:00 (4 hours after the administration) and 19:00 (8 hours after the administration, immediately before the second administration) one day before the administration and thereafter every week using an air applanation ophthalmotonometer (ALCON JAPAN LTD.). Average (mean±S.E.) of the difference between the intraocular pressures of eyes administered with the test solution and the control as determined at each time point, and the relevant t-test results were estimated. KRG-3332 was dissolved in physiological saline to prepare a 0.1% solution, which was used as test solution 2 (0.1% eye drop) in the determination of the activity to reduce intraocular pressure in a similar manner to above (1). For the comparison, bunazosin hydrochloride was dissolved in physiological saline to prepare a 0.03% solution, which was used as test solution 3 (reference drug, 0.03% eye drop of bunazosin hydrochloride) in the determination of the activity to reduce intraocular pressure in a similar manner to above (1) and (2).

Description for human variant α1 A-AR: The wild or variant α1 A-AR gene was incorporated into mammalian expression vector pCR3 (Invitrogen Inc.) using restriction enzyme EcoRI, and the vector was transfected into CHO cells with Lipofectamin (GIBCO Inc.).
The membrane fractions (about 20 μg protein/tube) were incubated in the presence of [^3 H]-prazosin (NEN Inc.) (30 to 200 μM) at 30° C. for 45 minutes, and then harvested on GF/C filter (Whatman Inc.) using a cell collecting apparatus (m-36T, Brandel Inc.). The filter was washed with 50 mM Tris-HCl buffer (pH7.4) several times, and then the radioactivity bound on the membrane was determined using a liquid scintillation counter. […] The experimental data was analyzed using nonlinear approximate program PRISM (trade mark) (Graphpad Software Inc.) to calculate the expression level of the receptor.

For the molecule `CCCC(=O)N1CCCN(c2nc(N)c3cc(OC)c(OC)cc3n2)CC1.Cl` [bunazosin hydrochloride, 1-(4-amino-6,7-dimethoxy-2-quinazolinyl)-4-butyrylhexahydro-1H-1,4-diazepin hydrochloride, reference compound], the “attenuation in activity to reduce intraocular pressure” value in assay [1] was “initiate the attenuation in an activity to reduce intraocular pressure after 4-weeks continuous administration”. On human variant α1 A-AR, the “expression level of the α1 A-AR (receptor levels)” value is “induced the increase in the receptor levels about three times compared to the treatment with KRG-3333”. Besides, the “development of drug resistance (change in activity to reduce intraocular pressure by continuous administration)” value in assay [2] (0.03% eye drop twice a day, up to 29th day, hydrochloride) is given as “any difference from the eyes administered with the control was hardly observed on the 22nd day; also recorded: any reduction in intraocular pressure was hardly observed on the 22nd day”. Moreover, the “Difference in intraocular pressure after the administration” value (“Difference in intraocular pressure” below) is given as 0.700 ± 0.320 mmHg in assay [2] (1st day, 0 hours after the administration); −1.700 ± 1.452 mmHg in assay [2] (1st day, 4 hours after the administration); 0.150 ± 0.947 mmHg in assay [2] (1st day, 8 hours after the administration); 0.600 ± 0.579 mmHg in assay [2] (8th day, 0 hours after the administration); −0.950 ± 1.176 mmHg in assay [2] (8th day, 4 hours after the administration); −0.350 ± 0.430 mmHg in assay [2] (8th day, 8 hours after the administration). Further, the “Difference in intraocular pressure” value is 0.100 ± 0.562 mmHg in assay [2] (15th day, 0 hours after the administration); −1.450 ± 0.804 mmHg in assay [2] (15th day, 2 hours after the administration); −0.250 ± 0.494 mmHg in assay [2] (15th day, 4 hours after the administration); −0.100 ± 0.150 mmHg in assay [2] (15th day, 8 hours after the administration); −0.050 ± 0.567 mmHg in assay [2] (22nd day, 0 hours after the administration); −0.250 ± 0.576 mmHg in assay [2] (22nd day, 2 hours after the administration). The “Difference in intraocular pressure” value in assay [2] (22nd day, 4 hours after the administration) is recorded as −0.200 ± 0.330 mmHg; in assay [2] (22nd day, 8 hours after the administration) it was 0.350 ± 0.150 mmHg; in assay [2] (29th day, 0 hours after the administration) it was 0.300 ± 1.011 mmHg; in assay [2] (29th day, 2 hours after the administration), −0.250 ± 0.652 mmHg; in assay [2] (29th day, 4 hours after the administration), −0.500 ± 0.306 mmHg; in assay [2] (29th day, 8 hours after the administration), −0.200 ± 0.289 mmHg.
